Test results published in patent publication US20070213346A1, “Substituted 4-Alkyl-And 4-Alkanoyl-Piperidine Derivatives And Their Use As Neurokinin Antagonists” (priority 2004, published 2007).

Experiments:
Assay type in all cases: cell-based
NK3 = molecular target: T1, NK3 (Homo sapiens, UniProt P29371); test: Signal transduction (ST), intracellular Ca++ FLIPR, NK3; conditions: antagonist, Ca++ transient peak, read-out: NK3 pIC50 (converted)
T1 sequence (P29371 1-465): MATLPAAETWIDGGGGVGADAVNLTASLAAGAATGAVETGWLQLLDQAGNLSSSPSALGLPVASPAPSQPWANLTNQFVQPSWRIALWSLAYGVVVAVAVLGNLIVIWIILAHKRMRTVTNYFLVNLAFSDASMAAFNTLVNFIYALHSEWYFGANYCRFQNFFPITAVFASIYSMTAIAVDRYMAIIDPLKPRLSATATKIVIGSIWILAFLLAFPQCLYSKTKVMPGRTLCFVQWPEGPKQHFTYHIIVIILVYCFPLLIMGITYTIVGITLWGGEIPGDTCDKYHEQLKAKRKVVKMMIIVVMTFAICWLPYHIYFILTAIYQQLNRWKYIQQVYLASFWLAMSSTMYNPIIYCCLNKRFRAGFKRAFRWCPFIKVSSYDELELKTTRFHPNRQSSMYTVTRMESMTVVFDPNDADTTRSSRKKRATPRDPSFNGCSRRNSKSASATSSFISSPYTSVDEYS
Method: [The source words this procedure for another target and reports this target under the same test.] (§1) This test evaluates in vitro functional NK1 antagonistic activity. For the measurements of intracellular Ca^++ concentrations the cells were grown on 96-well (black wall/transparent bottom) plates from Costar for 2 days until they reached confluence. The cells were loaded with 2 μM Fluo3 in DMEM containing 0.1% BSA and 2.5 mM probenecid for 1 h at 37° C. They were washed 3× with a Krebs buffer (140 mM NaCl, 1 mM MgCl2x6H2O, 5 mM KCl, 10 mM glucose, 5 mM HEPES; 1.25 mM CaCl2; pH 7.4) containing 2.5 mM probenecid and 0.1% BSA (Ca^++-buffer). The cells were preincubated with a concentration range of antagonists for 20 min at RT and Ca^++-signals after addition of the agonists were measured in a Fluorescence Image Plate Reader (FLIPR from Molecular Devices, Crawley, England). The peak of the Ca^++-transient was considered as the relevant signal and the mean values of corresponding wells were analysed as described below.
(§2) The sigmoidal dose response curves were analysed by computerised curve-fitting, using the GraphPad program. The EC50-value of a compound is the effective dose showing 50% of maximal effect. For mean curves the response to the agonist with the highest potency was normalised to 100%. For antagonist responses the IC50-value was calculated using non-linear regression.
(§3) The last columns indicates—without being limited thereto—for which use the compounds might be most suitable. Of course, since for some neurokinin receptors no data was determined, it is obvious that these compounds might be attributed to another suitable use.

NK1 = NK1 (Homo sapiens, UniProt P25103); test: Signal transduction (ST), intracellular Ca++ FLIPR, NK1; conditions: antagonist, Ca++ transient peak, read-out: NK1 pIC50 (converted)
Method: as §1
as §2, with “regression. […]” for “regression.”

NK2 = molecular target: T2, NK2 (Homo sapiens, UniProt P21452); test: Signal transduction (ST), intracellular Ca++ FLIPR, NK2; conditions: antagonist, Ca++ transient peak, read-out: NK2 pIC50 (converted)
T2 sequence (P21452 1-398): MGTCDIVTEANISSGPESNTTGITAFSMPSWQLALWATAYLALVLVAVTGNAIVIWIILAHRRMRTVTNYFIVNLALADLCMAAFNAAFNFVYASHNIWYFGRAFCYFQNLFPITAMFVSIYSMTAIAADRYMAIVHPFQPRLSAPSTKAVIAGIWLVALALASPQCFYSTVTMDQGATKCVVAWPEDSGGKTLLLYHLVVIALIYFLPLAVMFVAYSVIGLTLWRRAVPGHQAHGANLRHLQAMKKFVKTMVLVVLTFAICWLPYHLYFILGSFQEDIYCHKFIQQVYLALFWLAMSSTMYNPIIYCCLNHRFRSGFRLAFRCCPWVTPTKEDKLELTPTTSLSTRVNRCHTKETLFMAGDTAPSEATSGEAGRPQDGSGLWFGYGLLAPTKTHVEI
Method: [The source words this procedure for another target and reports this target under the same test.] as §1, §2, §3

Sequence of NK1 (P25103 whole entry): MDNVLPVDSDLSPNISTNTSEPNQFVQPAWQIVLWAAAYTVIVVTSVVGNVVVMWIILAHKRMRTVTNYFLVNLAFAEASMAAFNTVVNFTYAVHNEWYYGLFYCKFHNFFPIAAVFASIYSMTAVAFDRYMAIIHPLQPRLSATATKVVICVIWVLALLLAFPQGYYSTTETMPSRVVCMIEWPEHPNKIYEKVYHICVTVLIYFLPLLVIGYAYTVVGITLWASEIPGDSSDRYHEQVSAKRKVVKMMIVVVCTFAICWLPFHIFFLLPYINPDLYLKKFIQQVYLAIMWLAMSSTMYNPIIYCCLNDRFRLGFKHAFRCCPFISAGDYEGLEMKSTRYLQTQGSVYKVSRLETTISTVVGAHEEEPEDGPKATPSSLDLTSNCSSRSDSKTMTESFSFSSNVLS

Compound | IC50 (NK3) [µM] | IC50 (NK1) [µM] | IC50 (NK2) [µM]
O=C(c1cccs1)N1CCC(N2CCN(C[C@H]3CCN(C(=O)c4cc(C(F)(F)F)cc(C(F)(F)F)c4)[C@H](Cc4ccccc4)C3)CC2)CC1 (relative stereo) [Compound 37] | 7.08 | 0.275 | 8.91
O=C(c1ccoc1)N1CCC(N2CCN(CC3CCN(C(=O)c4cc(C(F)(F)F)cc(C(F)(F)F)c4)C(Cc4ccccc4)C3)CC2)C1 (stereo not drawn) [Compound 11] | ~7.94 | 0.0501 | 7.41
O=C(C1CC1)N1CCC(N2CCN(CC3CCN(C(=O)c4cc(C(F)(F)F)cc(C(F)(F)F)c4)C(Cc4ccccc4)C3)CC2)CC1 (stereo not drawn) [Compound 15] | ~7.76 | 0.191 | ~3.16
O=C(c1cc(C(F)(F)F)cc(C(F)(F)F)c1)N1CCC(CN2CCN(C3CCN(c4ncccn4)CC3)CC2)CC1Cc1ccccc1 (stereo not drawn) [Compound 17] | 5.25 | 0.0851 | 7.24
Cc1ccc(N2CCC(N3CCN(CC4CCN(C(=O)c5cc(C(F)(F)F)cc(C(F)(F)F)c5)C(Cc5ccccc5)C4)CC3)CC2)nn1 (stereo not drawn) [Compound 18] | > 10 | 0.229 | > 10
O=C(c1cc(C(F)(F)F)cc(C(F)(F)F)c1)N1CCC(CN2CCN(C3CCN(c4cnccn4)CC3)CC2)CC1Cc1ccccc1 (stereo not drawn) [Compound 19] | 7.94 | 0.288 | > 10
Cn1c(Cl)cnc1CN1CCC(N2CCN(CC3CCN(C(=O)c4cc(C(F)(F)F)cc(C(F)(F)F)c4)C(Cc4ccccc4)C3)CC2)CC1 (stereo not drawn) [Compound 20] | > 10 | 0.0933 | > 10
COc1cccc(CC(=O)N2CCC(N3CCN(CC4CCN(C(=O)c5cc(C(F)(F)F)cc(C(F)(F)F)c5)C(Cc5ccccc5)C4)CC3)CC2)c1 (stereo not drawn) [Compound 52] | ~9.77 | 0.316 | 2.34
O=C(C1CC1)N1CCC(N2CCN(C(=O)[C@H]3CCN(C(=O)c4cc(C(F)(F)F)cc(C(F)(F)F)c4)[C@H](Cc4ccccc4)C3)CC2)CC1 [Compound 56] | 0.692 | 0.0123 | 4.68
O=C(c1cc(C(F)(F)F)cc(C(F)(F)F)c1)N1CCC(CN2CCN(C3CCNC3)CC2)CC1Cc1ccccc1 (stereo not drawn) [Compound 60] | > 10 | 0.182 | > 10
O=C(C1CC1)N1CCC(N2CCN(C[C@H]3CCN(C(=O)c4cc(C(F)(F)F)cc(C(F)(F)F)c4)[C@H](Cc4ccccc4)C3)CC2)C1 (stereo partly drawn) [Compound 61] | > 10 | 0.0741 | > 10
O=C(c1ccsc1)N1CCC(N2CCN(C[C@H]3CCN(C(=O)c4cc(C(F)(F)F)cc(C(F)(F)F)c4)[C@H](Cc4ccccc4)C3)CC2)C1 (stereo partly drawn) [Compound 62] | > 10 | 0.1 | 7.24
Cc1nnsc1C(=O)N1CCC(N2CCN(C[C@H]3CCN(C(=O)c4cc(C(F)(F)F)cc(C(F)(F)F)c4)[C@H](Cc4ccccc4)C3)CC2)C1 (stereo partly drawn) [Compound 63] | > 10 | 0.0708 | > 10
O=C(c1ccccc1)N1CCC(N2CCN(C[C@H]3CCN(C(=O)c4cc(C(F)(F)F)cc(C(F)(F)F)c4)[C@H](Cc4ccccc4)C3)CC2)C1 (stereo partly drawn) [Compound 64] | > 10 | 0.117 | > 10
O=C(c1cccnc1)N1CCC(N2CCN(C[C@H]3CCN(C(=O)c4cc(C(F)(F)F)cc(C(F)(F)F)c4)[C@H](Cc4ccccc4)C3)CC2)C1 (stereo partly drawn) [Compound 65] | > 10 | 0.105 | > 10
O=C(c1cc(C(F)(F)F)cc(C(F)(F)F)c1)N1CCC(O)(CN2CCN(C3CCNC3)CC2)CC1Cc1ccccc1 (stereo not drawn) [Compound 76] | > 10 | 0.148 | > 10
O=C(C1CC1)N1CCC(N2CCN(CC3(O)CCN(C(=O)c4cc(C(F)(F)F)cc(C(F)(F)F)c4)C(Cc4ccccc4)C3)CC2)C1 (stereo not drawn) [Compound 77] | 2.88 | 0.0427 | 7.94
O=C(c1ccoc1)N1CCC(N2CCN(CC3(O)CCN(C(=O)c4cc(C(F)(F)F)cc(C(F)(F)F)c4)C(Cc4ccccc4)C3)CC2)C1 (stereo not drawn) [Compound 78] | 2.51 | 0.0363 | 8.91
O=C(c1ccccc1)N1CCC(N2CCN(CC3(O)CCN(C(=O)c4cc(C(F)(F)F)cc(C(F)(F)F)c4)C(Cc4ccccc4)C3)CC2)C1 (stereo not drawn) [Compound 79] | 7.24 | 0.0316 | 9.12
O=C(c1cccnc1)N1CCC(N2CCN(CC3(O)CCN(C(=O)c4cc(C(F)(F)F)cc(C(F)(F)F)c4)C(Cc4ccccc4)C3)CC2)C1 (stereo not drawn) [Compound 80] | > 10 | 0.0302 | 8.13
O=C(C1CCOC1)N1CCC(N2CCN(C(=O)[C@H]3CCN(C(=O)c4cc(C(F)(F)F)cc(C(F)(F)F)c4)[C@H](Cc4ccccc4)C3)CC2)CC1 (stereo partly drawn) [Compound 92] | 0.871 | 0.024 | 6.76
Cc1nnsc1C(=O)N1CCC(N2CCN(CC3(O)CCN(C(=O)c4cc(C(F)(F)F)cc(C(F)(F)F)c4)C(Cc4ccccc4)C3)CC2)C1 (stereo not drawn) [Compound 93] | 4.27 | 0.0398 | 7.76
